Measured values reported in PubChem BioAssay (NCI).
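All cell lines were grown in 96-well plates and treated with compound for 48 hours. GI50 is the concentration that inhibits growth by half. TGI: concentration producing complete growth inhibition.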

Tests used:
Assay in all cases: inhibition of tumour cell growth, NCI panel, 48 h
ACHN renal = system: ACHN renal
IGROV1 ovarian = system: IGROV1 ovarian
M14 melanoma = system: M14 melanoma
NCI-H226 lung = system: NCI-H226 lung
NCI-H460 lung = system: NCI-H460 lung
RXF 393 renal = system: RXF 393 renal
SW-620 colon = system: SW-620 colon
HS 578T breast = system: HS 578T breast
MDA-MB-231 breast = system: MDA-MB-231 breast
PC-3 prostate = system: PC-3 prostate

| SMILES | TGI (ACHN renal) [µM] | TGI (IGROV1 ovarian) [µM] | TGI (M14 melanoma) [µM] | TGI (NCI-H226 lung) [µM] | TGI (NCI-H460 lung) [µM] | TGI (RXF 393 renal) [µM] | TGI (SW-620 colon) [µM] | GI50 (ACHN renal) [µM] | GI50 (HS 578T breast) [µM] | TGI (HS 578T breast) [µM] | GI50 (IGROV1 ovarian) [µM] | GI50 (M14 melanoma) [µM] | GI50 (MDA-MB-231 breast) [µM] | TGI (MDA-MB-231 breast) [µM] | GI50 (NCI-H226 lung) [µM] | GI50 (NCI-H460 lung) [µM] | GI50 (PC-3 prostate) [µM] | TGI (PC-3 prostate) [µM] | GI50 (SW-620 colon) [µM] | GI50 (RXF 393 renal) [µM] |
| --- | --- | --- | --- | --- | --- | --- | --- | --- | --- | --- | --- | --- | --- | --- | --- | --- | --- | --- | --- | --- |
| CNCc1cc(OC)ccc1-c1ccc(OC)c(OC)c1OC | > 100 | > 100 | > 100 | > 100 | > 100 | > 100 | > 100 | – | – | – | – | – | – | – | – | – | – | – | – | – |
| CC[P+](C)(C)c1ccccc1 | > 100 | > 100 | > 100 | – | > 100 | > 100 | > 100 | – | – | – | – | – | – | – | – | – | – | – | – | – |
| Cc1ccc(NC(=O)C(=O)C(C#N)c2nc(-c3ccc(-c4ccccc4)cc3)cs2)c(C)c1 (stereo not drawn) | > 100 | > 100 | > 100 | > 100 | > 100 | > 100 | > 100 | – | – | – | – | – | – | – | – | – | – | – | – | – |
| COC(=O)C(C(=O)C(=O)Nc1nc(=S)[nH][nH]1)c1csc(-n2nc(-c3ccccc3)cc2-c2ccccc2)n1 (stereo not drawn) | > 100 | > 100 | > 100 | > 100 | > 100 | > 100 | > 100 | – | – | – | – | – | – | – | – | – | – | – | – | – |
| O=[N+]([O-])c1ccc(Sc2ncnc3nc[nH]c23)c2nonc12 | 16.1 | 7.64 | 13.5 | 30.5 | 35.2 | – | 3.44 | 4.04 | 15.4 | 77 | 2.32 | 0.94 | 8.15 | 24.2 | 11.7 | 9.73 | 13.1 | 30 | 1.63 | – |
| O=C1c2ccccc2S(=O)(=O)N1CSC(=S)N1CCCCC1 | > 100 | > 100 | > 100 | > 100 | > 100 | > 100 | > 100 | > 100 | > 100 | > 100 | > 89 | > 100 | > 100 | > 100 | > 100 | 5.5 | – | – | > 100 | > 100 |
| NNC(=O)CNC(=O)c1ccc(Cl)cc1Cl | > 100 | > 100 | > 100 | > 100 | > 100 | – | 33.3 | – | – | – | – | – | – | – | – | – | – | – | – | – |
| O=C1NC(=O)C(=C/C=C/c2ccccc2)C(=O)N1 | 5.65 | – | 4.73 | 7.25 | 7.31 | 2.71 | 4.22 | 2.32 | 4.81 | 50.4 | – | 2.04 | 3.73 | 16 | 2.81 | 2.78 | 4.59 | 23.4 | 1.79 | 1.39 |
| O=C(c1ccccc1)[C@H]1Nc2ccc(Cl)cc2C2c3ccccc3CC21 (stereo partly drawn) | > 100 | > 100 | > 100 | > 100 | > 100 | 45.4 | > 100 | – | – | – | – | – | – | – | – | – | – | – | – | – |
| CCOC(=O)c1c(C)n2c(=O)cc(C)c3c(O)c(O)cc1c32 | 31.2 | 87 | > 100 | 93.5 | > 100 | – | > 100 | 1.82 | 25.6 | > 100 | 4.83 | 53.3 | 4.49 | 30.2 | 9.2 | 12.9 | 4.23 | > 100 | 4.3 | – |
| CCCCCCCCOCC(O)COC(=O)CCCCCCC (stereo not drawn) | > 100 | > 100 | > 100 | > 100 | > 100 | – | > 100 | – | – | – | – | – | – | – | – | – | – | – | – | – |
| COc1ccc2c(CN3CCC(C(=O)O)CC3)cc3cc4c(cc3c2c1)OCO4 | 5.45 | – | 4.94 | 4.64 | 16.1 | 3.6 | 39.4 | 1.41 | 3.97 | 25.8 | – | 2.11 | 3.87 | 30.7 | 2.03 | 2.97 | 2.26 | 6.05 | 2.51 | 1.14 |
| Nc1nc2c(s1)CCc1c-2c(Br)n(Cc2ccccc2)c1Br | 5.23 | 37.5 | 30.2 | – | 52.9 | 6.38 | 9.74 | 2.22 | 25.7 | 93.8 | 14.1 | 14.5 | 14.1 | 48.7 | – | 21.3 | 12.8 | 45.5 | 3.31 | 2.23 |
| O=C(c1ccccc1)N1C2CCC1C(C(F)(F)F)=C2C(F)(F)F | – | > 100 | > 100 | > 100 | > 100 | > 100 | > 100 | – | – | – | – | – | – | – | – | – | – | – | – | – |
| CCN1C(=O)N(CC)C2Nn3c(s/c(=C\c4ccccc4Br)c3=O)=NC21 (stereo not drawn) | > 100 | > 100 | – | > 100 | 10.5 | 6.91 | > 100 | 1.33 | – | – | 2.77 | – | 1.89 | 8.62 | 6.31 | 0.804 | 1.86 | > 100 | 1.27 | 1.09 |
| CC(=O)c1ccc(OCC(O)CO)cc1 (stereo not drawn) | > 100 | > 100 | > 100 | > 100 | > 100 | – | 29.4 | – | – | – | – | – | – | – | – | – | – | – | – | – |
| O=C(O)C[C@H]1CCCCC12CCOC2=O (stereo partly drawn) | > 100 | > 100 | > 100 | > 100 | > 100 | > 100 | > 100 | – | – | – | – | – | – | – | – | – | – | – | – | – |
| CC(=O)Nc1cc(N(CCOS(C)(=O)=O)CCOS(C)(=O)=O)ccc1N=O | > 100 | > 100 | > 100 | > 100 | > 100 | – | > 100 | – | – | – | – | – | – | – | – | – | – | – | – | – |
| COC(=O)/C(=N\Nc1nc(=S)[nH]n1N)C(C#N)c1ccccc1 (stereo not drawn) | > 100 | > 100 | > 100 | > 100 | > 100 | > 100 | > 100 | – | – | – | – | – | – | – | – | – | – | – | – | – |
| COc1c(C(=O)c2ccc([N+](=O)[O-])cc2)cc(C(C)(C)C)cc1C(C)(C)C | > 100 | > 100 | > 100 | – | > 100 | 62.2 | > 100 | – | – | – | – | – | – | – | – | – | – | – | – | – |
